Each block holds one compound with its values, some of them ahead of it.
Assays:
Mus musculus [1] = assay: Tested for biodistribution of radioactivity after 3h of intravenous injection in mice stomach; format: ADME, organism-based; settings: in vivo
Mus musculus [2] = assay: Tested for biodistribution of radioactivity after 30 min of intravenous injection in mice spleen; format: ADME, organism-based; settings: in vivo, 0.5 h
Mus musculus [3] = assay: Tested for biodistribution of radioactivity after 5 min of intravenous injection in mice spleen; format: ADME, organism-based; settings: in vivo
Mus musculus [4] = assay: Tested for biodistribution of radioactivity after 30 min of intravenous injection in mice neck; format: ADME, organism-based; settings: in vivo, 0.5 h
Mus musculus [5] = assay: Tested for biodistribution of radioactivity after 24 hr of intravenous injection in mice kidneys; format: ADME, organism-based, Kidney; settings: in vivo
Mus musculus [6] = assay: Tested for biodistribution of radioactivity after 3h of intravenous injection in mice neck; format: ADME, organism-based; settings: in vivo
Mus musculus [7] = assay: Tested for biodistribution of radioactivity after 3h of intravenous injection in mice liver; format: ADME, organism-based; settings: in vivo
Mus musculus [8] = assay: Tested for biodistribution of radioactivity after 6 hr of intravenous injection in mice intestines; format: ADME, organism-based, Intestine; settings: in vivo
Mus musculus [9] = assay: Tested for biodistribution of radioactivity after 30 min of intravenous injection in mice lintestines; format: ADME, organism-based, Intestine; settings: in vivo, 0.5 h
Mus musculus [10] = assay: Tested for biodistribution of radioactivity after 24 hr of intravenous injection in mice stomach; format: ADME, organism-based; settings: in vivo
Mus musculus [11] = assay: Tested for biodistribution of radioactivity after 5 min of intravenous injection in mice liver; format: ADME, organism-based; settings: in vivo
Mus musculus [12] = assay: Tested for biodistribution of radioactivity after 24 hr of intravenous injection in mice spleen; format: ADME, organism-based; settings: in vivo
Mus musculus [13] = assay: Tested for biodistribution of radioactivity after 3h of intravenous injection in mice intestines; format: ADME, organism-based, Intestine; settings: in vivo
Mus musculus [14] = assay: Tested for biodistribution of radioactivity after 24 hr of intravenous injection in mice blood; format: ADME, organism-based; settings: in vivo
Mus musculus [15] = assay: Tested for biodistribution of radioactivity after 6 hr of intravenous injection in mice spleen; format: ADME, organism-based; settings: in vivo
Mus musculus [16] = assay: Tested for biodistribution of radioactivity after 1 hr of intravenous injection in mice neck; format: ADME, organism-based; settings: in vivo
Mus musculus [17] = assay: Tested for biodistribution of radioactivity after 6 hr of intravenous injection in mice urine; format: ADME, organism-based; settings: in vivo
Mus musculus [18] = assay: Tested for biodistribution of radioactivity after 5 min of intravenous injection in mice kidneys; format: ADME, organism-based; settings: in vivo
Mus musculus [19] = assay: Tested for biodistribution of radioactivity after 1 hr of intravenous injection in mice stomach; format: ADME, organism-based; settings: in vivo
Mus musculus [20] = assay: Tested for biodistribution of radioactivity after 3h of intravenous injection in mice spleen; format: ADME, organism-based; settings: in vivo
Mus musculus [21] = assay: Tested for biodistribution of radioactivity after 3h of intravenous injection in mice blood; format: ADME, organism-based; settings: in vivo
Mus musculus [22] = assay: Tested for biodistribution of radioactivity after 1 hr of intravenous injection in mice spleen; format: ADME, organism-based; settings: in vivo
Mus musculus [23] = assay: Tested for biodistribution of radioactivity after 6 hr of intravenous injection in mice stomach; format: ADME, organism-based; settings: in vivo
Mus musculus [24] = assay: Tested for biodistribution of radioactivity after 24 hr of intravenous injection in mice neck; format: ADME, organism-based; settings: in vivo
Mus musculus [25] = assay: Tested for biodistribution of radioactivity after 3h of intravenous injection in mice kidneys; format: ADME, organism-based, Kidney; settings: in vivo
Mus musculus [26] = assay: Tested for biodistribution of radioactivity after 6 hr of intravenous injection in mice neck; format: ADME, organism-based; settings: in vivo
Mus musculus [27] = assay: Tested for biodistribution of radioactivity after 5 min of intravenous injection in mice intestines; format: ADME, organism-based, Intestine; settings: in vivo
Mus musculus [28] = assay: Tested for biodistribution of radioactivity after 6 hr of intravenous injection in mice kidneys; format: ADME, organism-based, Kidney; settings: in vivo
Mus musculus [29] = assay: Tested for biodistribution of radioactivity after 6 hr of intravenous injection in mice feces; format: ADME, organism-based; settings: in vivo
Mus musculus [30] = assay: Tested for biodistribution of radioactivity after 6 hr of intravenous injection in mice blood; format: ADME, organism-based; settings: in vivo
Mus musculus [31] = assay: Tested for biodistribution of radioactivity after 1 hr of intravenous injection in mice intestines; format: ADME, organism-based, Intestine; settings: in vivo
Mus musculus [32] = assay: Tested for biodistribution of radioactivity after 30 min of intravenous injection in mice liver; format: ADME, organism-based; settings: in vivo, 0.5 h
Mus musculus [33] = assay: Tested for biodistribution of radioactivity after 1 hr of intravenous injection in mice blood; format: ADME, organism-based; settings: in vivo
Mus musculus [34] = assay: Tested for biodistribution of radioactivity after 30 min of intravenous injection in mice blood; format: ADME, organism-based; settings: in vivo, 0.5 h
Mus musculus [35] = assay: Tested for biodistribution of radioactivity after 5 min of intravenous injection in mice stomach; format: ADME, organism-based; settings: in vivo
Mus musculus [36] = assay: Tested for biodistribution of radioactivity after 24 hr of intravenous injection in mice intestines; format: ADME, organism-based, Intestine; settings: in vivo
Mus musculus [37] = assay: Tested for biodistribution of radioactivity after 5 min of intravenous injection in mice neck; format: ADME, organism-based; settings: in vivo
Mus musculus [38] = assay: Tested for biodistribution of radioactivity after 30 min of intravenous injection in mice stomach; format: ADME, organism-based; settings: in vivo, 0.5 h
Mus musculus [39] = assay: Tested for biodistribution of radioactivity after 5 min of intravenous injection in mice blood; format: ADME, organism-based; settings: in vivo
Mus musculus [40] = assay: Tested for biodistribution of radioactivity after 24 hr of intravenous injection in mice urine; format: ADME, organism-based; settings: in vivo
Mus musculus [41] = assay: Tested for biodistribution of radioactivity after 30 min of intravenous injection in mice kidneys; format: ADME, organism-based; settings: in vivo, 0.5 h
Mus musculus [42] = assay: Tested for biodistribution of radioactivity after 6 hr of intravenous injection in mice liver; format: ADME, organism-based; settings: in vivo
Mus musculus [43] = assay: Tested for biodistribution of radioactivity after 24 hr of intravenous injection in mice liver; format: ADME, organism-based; settings: in vivo
Mus musculus [44] = assay: Tested for biodistribution of radioactivity after 24 hr of intravenous injection in mice feces; format: ADME, organism-based; settings: in vivo
Mus musculus [45] = assay: Tested for biodistribution of radioactivity after 1 hr of intravenous injection in mice kidneys; format: ADME, organism-based, Kidney; settings: in vivo
Mus musculus [46] = assay: Tested for biodistribution of radioactivity after 1 hr of intravenous injection in mice liver; format: ADME, organism-based; settings: in vivo

Dose/organ (Mus musculus [1]): 0.52%
Dose/organ (Mus musculus [2]): 0.12%
Dose/organ (Mus musculus [3]): 0.21%
Dose/organ (Mus musculus [4]): 0.11%
Dose/organ (Mus musculus [5]): 0.02%
Dose/organ (Mus musculus [6]): 0.02%
Dose/organ (Mus musculus [7]): 1.56%
Dose/organ (Mus musculus [8]): 0.84%
Dose/organ (Mus musculus [9]): 9.99%
Dose/organ (Mus musculus [10]): 0.05%
Dose/organ (Mus musculus [11]): 92.56%
Dose/organ (Mus musculus [12]): 0.04%
Dose/organ (Mus musculus [13]): 2.54%
Dose/g (Mus musculus [14]): 0.02%
Dose/organ (Mus musculus [15]): 0.07%
Dose/organ (Mus musculus [16]): 0.06%
Dose/organ (Mus musculus [17]): 78.35%
Dose/organ (Mus musculus [18]): 0.65%
Dose/organ (Mus musculus [19]): 0.56%
Dose/organ (Mus musculus [20]): 0.07%
Dose/g (Mus musculus [21]): 0.09%
Dose/organ (Mus musculus [22]): 0.1%
Dose/organ (Mus musculus [23]): 0.45%
Dose/organ (Mus musculus [24]): 0.01%
Dose/organ (Mus musculus [25]): 0.14%
Dose/organ (Mus musculus [26]): 0.02%
Dose/organ (Mus musculus [27]): 0.28%
Dose/organ (Mus musculus [28]): 0.06%
Dose/organ (Mus musculus [29]): 2.3%
Dose/g (Mus musculus [30]): 0.03%
Dose/organ (Mus musculus [31]): 6.11%
Dose/organ (Mus musculus [32]): 12.28%
Dose/g (Mus musculus [33]): 0.24%
Dose/g (Mus musculus [34]): 1.01%
Dose/organ (Mus musculus [35]): 0.18%
Dose/organ (Mus musculus [36]): 0.05%
Dose/organ (Mus musculus [37]): 0.07%
Dose/organ (Mus musculus [38]): 0.59%
Dose/g (Mus musculus [39]): 0.45%
Dose/organ (Mus musculus [40]): 90.6%
Dose/organ (Mus musculus [41]): 5.34%
Dose/organ (Mus musculus [42]): 0.58%
Dose/organ (Mus musculus [43]): 0.27%
Dose/organ (Mus musculus [44]): 3.52%
Dose/organ (Mus musculus [45]): 2.79%
Dose/organ (Mus musculus [46]): 3.98%
SMILES: CN[C@@H](CSC1CC(=O)N(CCOC(=O)CNC(=O)c2cccc(I)c2)C1=O)C(=O)O (some centres not stated)

Dose/organ (Mus musculus [1]): 17.5%
Dose/organ (Mus musculus [2]): 0.3%
Dose/organ (Mus musculus [3]): 0.06%
Dose/organ (Mus musculus [4]): 0.7%
Dose/organ (Mus musculus [5]): 0.04%
Dose/organ (Mus musculus [6]): 0.25%
Dose/organ (Mus musculus [7]): 1.44%
Dose/organ (Mus musculus [8]): 3.06%
Dose/organ (Mus musculus [9]): 8.28%
Dose/organ (Mus musculus [10]): 0.11%
Dose/organ (Mus musculus [11]): 92.49%
Dose/organ (Mus musculus [12]): 0.02%
Dose/organ (Mus musculus [13]): 3.43%
Dose/g (Mus musculus [14]): 0.12%
Dose/organ (Mus musculus [15]): 0.06%
Dose/organ (Mus musculus [16]): 0.34%
Dose/organ (Mus musculus [17]): 26.84%
Dose/organ (Mus musculus [18]): 0.01%
Dose/organ (Mus musculus [19]): 25.55%
Dose/organ (Mus musculus [20]): 0.1%
Dose/g (Mus musculus [21]): 1.4%
Dose/organ (Mus musculus [22]): 0.23%
Dose/organ (Mus musculus [23]): 13.22%
Dose/organ (Mus musculus [24]): 0.01%
Dose/organ (Mus musculus [25]): 0.83%
Dose/organ (Mus musculus [26]): 0.21%
Dose/organ (Mus musculus [27]): 0.16%
Dose/organ (Mus musculus [28]): 0.57%
Dose/organ (Mus musculus [29]): 0.31%
Dose/g (Mus musculus [30]): 1.59%
Dose/organ (Mus musculus [31]): 6.73%
Dose/organ (Mus musculus [32]): 18.72%
Dose/g (Mus musculus [33]): 5.14%
Dose/g (Mus musculus [34]): 5.35%
Dose/organ (Mus musculus [35]): 0.25%
Dose/organ (Mus musculus [36]): 0.21%
Dose/organ (Mus musculus [37]): 0.04%
Dose/organ (Mus musculus [38]): 15.65%
Dose/g (Mus musculus [39]): 0.15%
Dose/organ (Mus musculus [40]): 79.66%
Dose/organ (Mus musculus [41]): 2.07%
Dose/organ (Mus musculus [42]): 1.13%
Dose/organ (Mus musculus [43]): 0.37%
Dose/organ (Mus musculus [44]): 3.22%
Dose/organ (Mus musculus [45]): 1.73%
Dose/organ (Mus musculus [46]): 3.68%
SMILES: CCc1ccc(O)c(I)c1
